Test results taken from patent US12098356B2, “Effects of space travel on human brain cells” (EMULATE, Inc., priority 2017, dated 2024).

Tested on: glutamatergic neurons on the Brain-Chip
Assay: Calcium imaging (Fluo-4 AM) of neuronal activity on the Brain-Chip
Format: cell-based, human
Details: NMDA and AMPA receptor inhibition (DAP5 and CNQX respectively), compared to control without inhibitors
From the text: FIG. 30A Spontaneous activity was studied by means of calcium imaging, enabling the investigation of neuronal activity of single cells and the network as a whole. Fluo-4 AM, a calcium sensitive fluorescent dye, was loaded onto the cells, and intracellular calcium fluctuations were monitored over time using high-speed imaging. […] FIG. 38A-C Pharmacological Targeting of the Glutamatergic Neurons in the Brain-Chip. […] Scale bars=200 μm. […] FIG. 38A-C Pharmacological Targeting of the Glutamatergic Neurons in the Brain-Chip. […] Scale bars=200 μm.

For `N#Cc1cc2c(cc1[N+](=O)[O-])=NC(=O)C(=O)N=2` [CNQX, 6-cyano-7-nitroquinoxaline-2,3-dione], the “effect on percentage of active neurons” value was “reduced the percentage of active neurons”.
